Read-outs that look alike come from different tables or passages of the source.
Molecular target: T1, Human AMPK α2β2γ1 (Homo sapiens, UniProt O43741+P54646)
T1 construct: The full length cDNAs of human AMPK β2 (NM_005399.3) and human AMPK α2 (NM_006252.3); The full length cDNAs of human AMPK β2 (NM_005399.3); the full length cDNA of human AMPK γ1 (NM_002733.3) had been inserted into pET28b(+); 6×His (N); made in house; host or cells: Escherichia coli BL21 CodonPlus (DE3)-RIL
Assay: Test Example 2: activation of phosphorylated human AMPK α2β2γ1 (mobility-shift kinase assay, FL-Peptide 7)
Format: biochemical
Conditions: for EC150: compound concentration showing 150% relative to the control (100%), human AMPK α2β2γ1 phosphorylated with CaMKK2; for Emax: maximum rate of increase in activity within the measurement range, control = 100%
Protocol: The full length cDNAs of human AMPK β2 (NM_005399.3) and human AMPK α2 (NM_006252.3) were inserted into the MCS1 and MCS2 of the pETDuet-1 vector to prepare a human AMPK β2 and human AMPK α2 (6×His tag at the 5′ terminus) expressing plasmid. The plasmid was cotransfected with an expression plasmid, in which the full length cDNA of human AMPK γ1 (NM_002733.3) had been inserted into pET28b(+), into BL21 CodonPlus (DE3)-RIL to obtain an expression strain. The expression strain was cultured in TB medium, followed by induction with 0.5 mM IPTG, and cultured at 25° C. for 3 hours and then harvested. After ultrasonication, supernatant was collected and applied to Histrap FF column (GE) and RESOUECE Q column (GE) to prepare 12.5 mg of purified sample containing three types of subunit from 1.8 L of broth.
An expression vector, in which the full length cDNA of human CAMKK β (NM_172226.1) had been inserted into pGEX-6P-3, was transfected into BL21 Star (DE3). The expression strain was cultured in TB medium, followed by induction with 0.5 mM IPTG, and cultured at 25° C. for 3 hours and then harvested. After ultrasonication, supernatant was collected and applied to GSTrap FF column (GE) to prepare 14 mg of GST-fused CAMKK β from 720 ml of broth.
Thus, phosphorylation treatment was carried out as pretreatment.
Human AMPK α2β2γ1 in an amount to give a conversion rate of approximately 10% by reaction for 2 hours, and CaMKK2 in an amount capable of sufficiently imparting activity to AMPK for one hour were mixed in a buffer solution consisting of a 50 mM HEPES-NaOH buffer solution (pH 7.0), 100 mM NaCl, 5 mM magnesium chloride, 0.1% bovine serum albumin, 0.2 mM sodium orthovanadate(V), 1 mM ethylene glycol-bis(2-aminoethyl ether)-N,N,N′,N′-tetraacetic acid (EGTA), 5 mM disodium β-glycerophosphate, 1 mM dithiothreitol and 0.2 mM ATP, and the resulting liquid was left to stand at 25° C. for 1 to 1.5 hours to sufficiently phosphorylate AMPK.
After that, to the enzyme liquid, which had been subjected to phosphorylation treatment, a compound dissolved in DMSO was added so as to have a 1% DMSO concentration. The resulting liquid was left to stand for 10 minutes.
To the liquid, a substrate solution consisting of a 50 mM HEPES-NaOH buffer solution (pH 7.0), 100 mM NaCl, 10 mM magnesium chloride, 0.1% bovine serum albumin, 0.2 mM sodium orthovanadate(V), 1 mM ethylene glycol-bis(2-aminoethyl ether)-N,N,N′,N′-tetraacetic acid (EGTA), 5 mM disodium β-glycerophosphate, 2 mM dithiothreitol, 0.4 mM ATP and 3 μM FL-Peptide 7 (manufactured by Caliper Life Sciences, Inc.) was added in equal amount (10 μl in total). The resulting liquid was allowed to react at 25° C. for 2 hours, then 10 μl of 20 mM EDTA was added thereto to stop the reaction.
To detect phosphorylated fluorescent substrates, the reaction mixture was applied to a measuring device, LabChip EZ Reader II manufactured by Caliper Life Science, Inc., for detecting fluorescence by using differences in mobility due to differences in charge. The setting conditions for the device were pressure, −1.5 PSI; upstream voltage, −2250 V; downstream voltage, −400 V; post sample buffer sip time, 40 seconds; final delay, 120 seconds; and peak order, Product First.
A conversion rate was calculated from the peak heights of the obtained substrate and product. The conversion rate when not containing a compound was used as a control, and a concentration dependent curve was made by plotting the rate of increase in activity to the control at each concentration of a compound.

T1 sequence (P54646 whole entry): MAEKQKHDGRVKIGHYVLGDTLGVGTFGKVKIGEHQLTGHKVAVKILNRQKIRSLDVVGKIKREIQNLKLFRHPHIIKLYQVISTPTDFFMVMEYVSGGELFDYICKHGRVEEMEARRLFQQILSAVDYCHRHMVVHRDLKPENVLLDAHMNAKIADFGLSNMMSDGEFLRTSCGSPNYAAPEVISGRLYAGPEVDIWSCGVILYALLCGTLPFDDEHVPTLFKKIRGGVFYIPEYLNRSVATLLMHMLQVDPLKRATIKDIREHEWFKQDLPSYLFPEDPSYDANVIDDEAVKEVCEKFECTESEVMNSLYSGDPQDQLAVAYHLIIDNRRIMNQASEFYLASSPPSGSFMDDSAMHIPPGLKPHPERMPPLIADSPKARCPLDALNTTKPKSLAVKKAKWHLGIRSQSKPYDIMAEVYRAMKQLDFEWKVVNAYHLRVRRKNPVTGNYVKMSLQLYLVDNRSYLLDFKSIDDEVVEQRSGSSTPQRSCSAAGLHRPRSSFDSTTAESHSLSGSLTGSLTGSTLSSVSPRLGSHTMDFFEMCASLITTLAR
T1 sequence (O43741 whole entry): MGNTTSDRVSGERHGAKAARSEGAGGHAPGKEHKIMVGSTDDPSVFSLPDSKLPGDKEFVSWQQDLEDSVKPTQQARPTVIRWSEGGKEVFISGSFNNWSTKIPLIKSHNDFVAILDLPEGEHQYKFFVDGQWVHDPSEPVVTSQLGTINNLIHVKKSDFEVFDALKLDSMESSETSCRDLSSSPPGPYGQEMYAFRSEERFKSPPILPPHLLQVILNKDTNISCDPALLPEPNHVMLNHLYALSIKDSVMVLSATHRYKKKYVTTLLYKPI
T1 sequence (P54619 whole entry partner): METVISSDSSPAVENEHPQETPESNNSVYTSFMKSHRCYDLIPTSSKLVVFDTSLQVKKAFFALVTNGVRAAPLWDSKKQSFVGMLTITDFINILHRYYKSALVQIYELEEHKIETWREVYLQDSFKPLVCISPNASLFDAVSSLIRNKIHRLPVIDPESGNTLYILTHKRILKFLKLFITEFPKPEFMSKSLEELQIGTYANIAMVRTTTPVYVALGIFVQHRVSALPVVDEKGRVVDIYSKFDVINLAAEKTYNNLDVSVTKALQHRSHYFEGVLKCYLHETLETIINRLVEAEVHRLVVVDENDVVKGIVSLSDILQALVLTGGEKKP

In the case of `CNC(=O)OC1CCN(c2ccc(-c3nc4cc(O[C@@H]5CO[C@H]6[C@@H]5OC[C@H]6O)[nH]c4cc3F)cc2)CC1` [Compound I-1-49], the EC150 is reported as 19 nM and the Emax (read-out: Emax) is reported as 551%.

Work on `COCCN(C(C)=O)c1ccc(-c2ccc(-c3nc4cc(O[C@@H]5CO[C@H]6[C@@H]5OC[C@H]6O)[nH]c4cc3F)cc2)cc1` [Compound I-2-37] yielded an EC150 of 4.5 nM and an Emax (read-out: Emax) of 415%.

`O[C@@H]1CO[C@H]2[C@@H]1OC[C@H]2Oc1cc2nc(-c3ccc(N4CCC(OC5CCNCC5)CC4)cc3)c(F)cc2[nH]1` [Compound I-2-62] gave an EC150 of 47 nM and an Emax (read-out: Emax) of 514%.

`COCCOc1ccc(-c2ccc(-c3nc4cc(O[C@@H]5CO[C@H](CO)C5)[nH]c4cc3F)cc2)cc1` [Compound I-2-02] was tested, and the Emax (read-out: Emax) was 537%.

`O=C1CCCN1c1ccc(-c2ccc(-c3nc4cc(O[C@@H]5CO[C@H]6[C@@H]5OC[C@H]6O)[nH]c4cc3F)cc2)cc1` [Compound I-1-37] gave an EC150 of 6.5 nM and an Emax (read-out: Emax) of 405%.

With `O[C@@H]1CO[C@H]2[C@@H]1OC[C@H]2Oc1cc2nc(-c3ccc(-c4ccc(OC5CNC[C@H]5F)cc4)cc3)c(F)cc2[nH]1` (some centres unmarked) [Compound I-2-28] the EC150 was 4.4 nM and the Emax (read-out: Emax) was 398%.

`COCCCN1CCN(c2ccc(-c3nc4cc(O[C@@H]5CO[C@H]6[C@@H]5OC[C@H]6O)[nH]c4cc3F)cc2)CC1` [Compound I-2-58] was tested, and the EC150 was 56 nM and the Emax (read-out: Emax) was 514%.

With `COC(=O)N1CCN(c2ccc(-c3nc4cc(O[C@@H]5CO[C@H]6[C@@H]5OC[C@H]6O)[nH]c4cc3F)cc2)CC1` [Compound I-1-57] the EC150 was 32 nM and the Emax (read-out: Emax) was 550%.

Compound `NC(=O)c1ccc(-c2ccc(-c3nc4cc(O[C@@H]5CO[C@H]6[C@@H]5OC[C@H]6O)[nH]c4cc3F)cc2)cc1F` [Compound I-1-52] has an EC150 of 2.2 nM and an Emax (read-out: Emax) of 469%.

`CN(C)S(=N)(=O)c1ccc(-c2ccc(-c3nc4cc(O[C@@H]5CO[C@H]6[C@@H]5OC[C@H]6O)[nH]c4cc3F)cc2)cc1` (some centres unmarked) [Compound I-2-11] was tested, and the EC150 was 2.1 nM and the Emax (read-out: Emax) was 408%.

For `COC(=O)NC1CC=C(c2ccc(-c3nc4cc(O[C@@H]5CO[C@H]6[C@@H]5OC[C@H]6O)[nH]c4cc3F)cc2)CC1` (some centres unmarked) [Compound I-1-22], the EC150 was 3.8 nM and the Emax (read-out: Emax) was 422%.

Work on `O[C@@H]1CO[C@H]2[C@@H]1OC[C@H]2Oc1cc2nc(-c3ccc(-c4ccc(OC5CNC5)cc4)cc3)c(F)cc2[nH]1` [Compound I-1-63] yielded an EC150 of 3.2 nM and an Emax (read-out: Emax) of 361%.

With `OC1CCN(c2ccc(-c3ccc(-c4nc5cc(O[C@@H]6CO[C@H]7[C@@H]6OC[C@H]7O)[nH]c5cc4F)cc3)cc2)C1` (some centres unmarked) [Compound I-1-59] the EC150 was 2.9 nM and the Emax (read-out: Emax) was 470%.

`CS(C)(=O)=Nc1ccc(-c2ccc(-c3nc4cc(O[C@@H]5CO[C@H](CO)[C@H]5O)[nH]c4cc3F)cc2)cc1` [Compound I-2-23] showed an EC150 of 28 nM and an Emax (read-out: Emax) of 224%.

`O=C(c1ccc(-c2ccc(-c3nc4cc(O[C@@H]5CO[C@H](CO)C5)[nH]c4cc3F)cc2)cc1)N1CCCC1` [Compound I-2-49] gave an EC150 of 0.88 nM and an Emax (read-out: Emax) of 684%.

For `CS(=O)(=O)N[C@H]1CC[C@H](c2ccc(-c3nc4cc(O[C@@H]5CO[C@H]6[C@@H]5OC[C@H]6O)[nH]c4cc3F)cc2)CC1` [Compound I-1-45], the EC150 was 19 nM and the Emax (read-out: Emax) was 482%.

`COCCOc1cc(F)c(-c2ccc(-c3nc4cc(O[C@@H]5CO[C@H]6[C@@H]5OC[C@H]6O)[nH]c4cc3F)cc2)c(F)c1` [Compound I-2-76] was tested, and the EC150 was 20 nM and the Emax (read-out: Emax) was 490%.

`C[S+]([O-])c1ccc(-c2ccc(-c3nc4cc(O[C@@H]5CO[C@H]6[C@@H]5OC[C@H]6O)[nH]c4cc3F)cc2)cc1` (single isomer, unassigned) [Compound I-2-09] gave an EC150 of 1.9 nM and an Emax of 598%.

`CP(C)(=O)c1ccc(-c2ccc(-c3nc4cc(O[C@@H]5CO[C@H](CO)C5)[nH]c4cc3F)cc2)cc1` [Compound I-2-65] gave an EC150 of 0.6 nM and an Emax (read-out: Emax) of 673%.

Work on `CS(C)(=O)=Nc1ccc(-c2ccc(-c3nc4cc(O[C@@H]5CO[C@H](CO)[C@@H]5O)[nH]c4cc3F)cc2)cc1` [Compound I-2-19] yielded an EC150 of 67 nM and an Emax (read-out: Emax) of 192%.

`CNCCOc1ccc(-c2ccc(-c3nc4cc(O[C@@H]5CO[C@H]6[C@@H]5OC[C@H]6O)[nH]c4cc3F)cc2)cc1` [Compound I-1-69] showed an EC150 of 1.6 nM and an Emax (read-out: Emax) of 359%.

`CS(C)(=O)=Nc1ccc(-c2ccc(-c3nc4cc(O[C@@H]5CO[C@H]6[C@@H]5OC[C@H]6O)[nH]c4cc3Cl)cc2)cc1` [Compound I-1-30] was tested, and the EC150 was 1.7 nM and the Emax (read-out: Emax) was 500%.

In the case of `COCCS(=O)(=O)c1ccc(-c2ccc(-c3nc4cc(O[C@@H]5CO[C@H]6[C@@H]5OC[C@H]6O)[nH]c4cc3F)cc2)cc1` [Compound I-2-95], the EC150 is reported as 2.6 nM and the Emax (read-out: Emax) is reported as 634%.

`C[S@](=O)(=Nc1ccc(-c2ccc(-c3nc4cc(O[C@@H]5CO[C@H]6[C@@H]5OC[C@H]6O)[nH]c4cc3F)cc2)cc1)c1ccccc1` [Compound I-1-18] gave an EC150 of 19 nM and an Emax (read-out: Emax) of 415%.

`Clc1cc2[nH]c(O[C@H]3CCOC3)cc2nc1-c1ccc(-c2ccc(OC3CCNC3)cc2)cc1` (some centres unmarked) [Compound I-2-21] showed an EC150 of 13 nM and an Emax (read-out: Emax) of 249%.

For `CC(C)OC(=O)NC1CCN(c2ccc(-c3nc4cc(O[C@@H]5CO[C@H]6[C@@H]5OC[C@H]6O)[nH]c4cc3F)cc2)CC1` [Compound I-1-34], the EC150 was 8.6 nM and the Emax (read-out: Emax) was 518%.

In the case of `O=C(c1ccc(-c2ccc(-c3nc4cc(O[C@@H]5CO[C@H]6[C@@H]5OC[C@H]6O)[nH]c4cc3F)cc2)cc1)N1CCCC1` [Compound I-1-09], the EC150 is reported as 4.8 nM and the Emax (read-out: Emax) is reported as 475%.

Work on `CN(C)CCOc1ccc(-c2ccc(-c3nc4cc(O[C@@H]5CO[C@H]6[C@@H]5OC[C@H]6O)[nH]c4cc3F)cc2)cc1` [Compound I-1-68] yielded an EC150 of 2.5 nM and an Emax (read-out: Emax) of 360%.

Compound `CS(C)(=O)=Nc1ccc(-c2ccc(-c3nc4cc(O[C@@H]5CO[C@H](CO)[C@H]5F)[nH]c4cc3F)cc2)cc1` [Compound I-2-42] has an EC150 of 2.6 nM and an Emax (read-out: Emax) of 647%.

Work on `OC[C@@H]1C[C@H](Oc2cc3nc(-c4ccc(C5(CO)CC5)cc4)c(F)cc3[nH]2)CO1` [Compound I-2-80] yielded an EC150 of 2 nM and an Emax (read-out: Emax) of 558%.

Compound `OCCOc1ccc(-c2ccc(-c3nc4cc(O[C@@H]5CO[C@H]6[C@@H]5OC[C@H]6O)[nH]c4cc3F)cc2)cc1` [Compound I-1-72] has an EC150 of 3 nM and an Emax (read-out: Emax) of 353%.

Compound `CO[C@@H]1CO[C@H]2[C@@H]1OC[C@H]2Oc1cc2nc(-c3ccc(-c4ccc(N=S(C)(C)=O)cc4)cc3)c(F)cc2[nH]1` [Compound I-1-07] has an EC150 of 15 nM and an Emax (read-out: Emax) of 189%.

With `CNC(=O)COc1ccc(-c2ccc(-c3nc4cc(O[C@@H]5CO[C@H]6[C@@H]5OC[C@H]6O)[nH]c4cc3F)cc2)cc1` [Compound I-2-47] the EC150 was 2.2 nM and the Emax (read-out: Emax) was 635%.

Source: patent US10478425B2, “5-phenylazaindole derivative having AMPK-activating activity” (Shionogi & Co., Ltd., priority 2016, dated 2019)
